Consider ten compounds from patent US20250144067A1, “PERSONALIZED STARVATION THERAPY FOR CANCER” (Faeth Therapeutics, Inc., priority 2021, published 2025).

Counter-ions that a name gives are not always drawn.

Experiment [1] concerns NCI-H292 lung cancer cells. The experiment in a line: FDA drug screening, complete media vs cholesterol-free media with simvastatin (TABLE 2). It is filed as cell-based, human. The conditions noted are these: for Cholesterol-free media + simvastatin (0.04 μM) / Complete Media: NCI-H292 cells; for Difference: >0 enhanced anti-cancer activity, about 0 neutral, <0 antagonist.
For experiment [2], the system named is NCI-H292 lung cancer cells. The experiment can be described thus: FDA drug screening, complete media vs cholesterol-free media without statin (TABLE 1). It is filed as cell-based, human. The conditions noted are these: for Difference: about 0 neutral.
Setting [3] is: cholesterol-free media with simvastatin 0.04 μM, FDA drug library screen (TABLE 2).
[4] abbreviates: complete media, FDA drug library screen (TABLE 2).
The mark [5] stands for this setting: complete media minus cholesterol-free media + simvastatin (0.04 μM).
The mark [6] stands for this setting: Complete minus Cholesterol-free, >0 enhanced anti-cancer activity, <0 antagonist.
[7] abbreviates: NCI-H292 cells, cholesterol-free media without statin, FDA drug library screen.
The mark [8] stands for this setting: NCI-H292 cells, complete media, FDA drug library screen.
Where [9] appears, read: Complete minus Cholesterol-free, greater than 0 enhanced anti-cancer activity, below 0 antagonist.
Where [10] appears, read: NCI-H292 cells, FDA drug library screen, cholesterol-free media without statin.
Where [11] appears, read: NCI-H292 cells, FDA drug library screen, complete media.
Setting [12] is: complete media vs cholesterol-free media + simvastatin (0.04 μM).
[13] abbreviates: FDA drug library screen, cholesterol-free media with simvastatin 0.04 μM.
The mark [14] stands for this setting: FDA drug library screen, complete media.
Where [15] appears, read: complete media minus cholesterol-free media + simvastatin.
[16] abbreviates: NCI-H292 cells, cholesterol-free media without statin.
The mark [17] stands for this setting: Complete minus Cholesterol-free, greater than 0 enhanced anti-cancer activity, below 0 antagonists.
[18] abbreviates: NCI-H292 cells in cholesterol-free media without statin.
Where [19] appears, read: NCI-H292 cells in complete media.
Setting [20] is: cholesterol-free media with simvastatin 0.04 μM, cell growth value in FDA drug screen.
Setting [21] is: complete media, cell growth value in FDA drug screen.

`Cc1c(-c2ccccc2)oc2c(C(=O)OCCN3CCCCC3)cccc2c1=O` [Flavoxate (hydrochloride)]: the “Cholesterol-free media + simvastatin (0.04 μM)” value in experiment [1] (setting [3]) was found to be 0.9542. For the same compound, the “Complete Media” value in experiment [1] (setting [4]) worked out at 0.8849. Besides, the Difference in experiment [1] (setting [5]) is on record as −0.07; in experiment [2] (setting [6]), 0.01. Further, in experiment [2] (setting [7]), the Cholesterol-free came to 0.984. For the same compound, the Complete in experiment [2] (setting [8]) turned out to be 0.9957.
In the case of `CCOC(=O)c1ccc(C#Cc2ccc3c(c2)C(C)(C)CCS3)nc1` [Tazarotene], the “Cholesterol-free media + simvastatin (0.04 μM)” value in experiment [1] (setting [3]) was 0.9107. The “Complete Media” value in experiment [1] (setting [4]) was found to be 0.8646. The Difference in experiment [1] (setting [5]) is recorded as −0.05; in experiment [2] (setting [9]) it was −0.11. For the same compound, the Cholesterol-free in experiment [2] (setting [10]) is given as 0.7313. Moreover, the Complete in experiment [2] (setting [11]) came out at 0.6177.
Consider `CO/N=C(\C(=O)N[C@@H]1C(=O)N2C(C(=O)OCOC(=O)C(C)(C)C)=C(C)CS[C@H]12)c1csc(N)n1.Cl` [Cefetamet pivoxil (hydrochloride)], for which the “Cholesterol-free media + simvastatin (0.04 μM)” value in experiment [1] (drug in cholesterol-free media with simvastatin 0.04 μM) is on record as 1.058. The “Complete Media” value in experiment [1] (drug in complete media) is given as 0.852. The Difference in experiment [1] (setting [12]) is given as −0.21; in experiment [2] (setting [9]) it was −0.16. This compound also returned a Cholesterol-free in experiment [2] (setting [10]) of 1.076. Also, the Complete in experiment [2] (setting [11]) is reported as 0.9196.
Take `CC(C)(CCCCCC(O)CCCCCC(C)(C)C(=O)O)C(=O)O` [Bempedoic acid]: the “Cholesterol-free media + simvastatin (0.04 μM)” value in experiment [1] (setting [13]) stood at 1.143. For the same compound, the “Complete Media” value in experiment [1] (setting [14]) is recorded as 1.281. The values for the Difference in experiment [1] (setting [15]) and in experiment [2] (setting [6]) were 0.14 and −0.25, respectively. In experiment [2] (setting [16]), this compound registered a Cholesterol-free of 1.343. In experiment [2] (NCI-H292 cells, complete media), the Complete came to 1.094.
For `C[C@](N)(Cc1ccc(O)c(O)c1)C(=O)O.O` [L-(−)-α-Methyldopa (hydrate)], the “Cholesterol-free media + simvastatin (0.04 μM)” value in experiment [1] (FDA library drug in cholesterol-free media with simvastatin 0.04 μM) was 1.97. Besides, in experiment [1] (FDA library drug in complete media), the “Complete Media” value is 1.117. Also, the Difference in experiment [1] (setting [12]) was −0.85; in experiment [2] (setting [17]), −0.69. Further, the Cholesterol-free in experiment [2] (setting [18]) is 1.665. In experiment [2] (setting [19]), this compound returned a Complete of 0.973.
For `NCc1ccccc1CC(=O)N[C@@H]1C(=O)N2C(C(=O)O)=C(CSc3nnnn3CC(=O)O)CS[C@H]12` [Ceforanide], the “Cholesterol-free media + simvastatin (0.04 μM)” value in experiment [1] (setting [13]) is 1.034. Besides, the “Complete Media” value in experiment [1] (setting [14]) is 1.331. Besides, the Difference is on record as 0.30 in experiment [1] (setting [15]) and −0.76 in experiment [2] (setting [17]). In experiment [2] (setting [18]), this compound yielded a Cholesterol-free of 1.736. The compound further gave a Complete in experiment [2] (setting [19]) of 0.9794.
For `Cc1c(Cl)cccc1Nc1ccccc1C(=O)O` [Tolfenamic Acid], the “Cholesterol-free media + simvastatin (0.04 μM)” value in experiment [1] (setting [20]) is 0.9725. The “Complete Media” value in experiment [1] (setting [21]) came out at 0.9986. Further, the Difference in experiment [1] (setting [15]) is 0.03; in experiment [2] (complete vs cholesterol-free media, greater than 0 enhanced anti-cancer activity, below 0 antagonists) it was −0.40. Further, the Cholesterol-free in experiment [2] (setting [16]) is 1.332. In experiment [2] (NCI-H292 cells, complete media), this compound registered a Complete of 0.9309.
On to `NC(=O)c1cnc2[nH]ccc2c1N[C@@H]1[C@@H]2CC3C[C@H]1C[C@@](O)(C3)C2` [Peficitinib], for which, in experiment [1] (setting [20]), the “Cholesterol-free media + simvastatin (0.04 μM)” value is given as 0.6674. Further, the “Complete Media” value in experiment [1] (setting [21]) came out at 0.776. The Difference is recorded as 0.11 in experiment [1] (setting [15]) and −0.03 in experiment [2] (setting [6]). Moreover, the Cholesterol-free in experiment [2] (setting [7]) is 1.336. The same compound displayed a Complete in experiment [2] (setting [8]) of 1.303.
Regarding `O=c1[nH]cnc2c1ncn2[C@@H]1O[C@H](CO)[C@@H](O)[C@H]1O` [Inosine], the “Cholesterol-free media + simvastatin (0.04 μM)” value in experiment [1] (setting [13]) is recorded as 0.924. Also, the “Complete Media” value in experiment [1] (setting [14]) is 1.085. The Difference in experiment [1] (setting [15]) is reported as 0.16; in experiment [2] (setting [6]), 0.02. In experiment [2] (setting [7]), this compound yielded a Cholesterol-free of 0.9203. The same compound had a Complete in experiment [2] (setting [8]) of 0.941.
Consider `CC(C)(C)NC[C@H](O)COc1cccc2c1CCCC2=O` [Levobunolol (hydrochloride)], for which the “Cholesterol-free media + simvastatin (0.04 μM)” value in experiment [1] (setting [3]) was 0.9864. The “Complete Media” value in experiment [1] (setting [4]) was determined as 0.921. Besides, the Difference in experiment [1] (setting [5]) is −0.07; in experiment [2] (complete vs cholesterol-free media, >0 enhanced anti-cancer activity, <0 antagonist) it was 0.64. Moreover, in experiment [2] (setting [7]), the Cholesterol-free was 0.4904. Further, in experiment [2] (setting [8]), the Complete was determined as 1.134.
